Test results as given in article PMC5078989, “Targeted inhibition of the COP9 signalosome for treatment of cancer” (Nature Communications, 2016).

Key:
[1] = molecular target: T1, CSN5 (Homo sapiens, UniProt Q92905); assay: CSN5 activity assay (CSN deneddylation, fluorescence polarization); type: biochemical; conditions: JAMM domain protease; means±s.d.
T1 construct: made in house; host or cells: Sf21 insect cells, co-infection of separate baculoviruses
Protocol: Unlike the majority of proteases, it is not active as an individual subunit or as an isolated catalytic domain. […] For the identification of CSN inhibitors, we therefore conducted a high-throughput screening campaign using a biochemical assay with recombinant CSN and a fluorescence-labelled and NEDD8-modified CRL substrate[30][40] (PT22-NEDD8-SCF^Skp2; Supplementary Table 1).
The potency of CSN5 inhibitors was determined in a CSN activity assay using changes in fluorescence polarization as the readout. Reactions were carried out at room temperature in 384-well plates. […] The effect of compound on enzymatic activity was determined from the linear part of the progression curves by an end-point measurement of the fluorescence polarization at 590 nm after excitation at 540 nm using a PHERAstar plate reader (BMG LABTECH GmbH). IC50 values were calculated from the plot of percentage of inhibition versus inhibitor concentration using the non-linear regression analysis software Origin 7.5SR6 (OriginLab Corp.).

[2] = test system: NCI-H2030 cells; assay: Cell viability assay (CellTiter-Glo), NCI-H2030; type: cell-based, human; conditions: NCI-H2030, 72 h; cytostatic
Protocol: (§1) Cells were maintained in a humidified incubator at 37 °C and 5% CO2. […] All cells were negatively tested for mycoplasma contamination either by the vendor or in house. […] If not stated otherwise, cells were harvested after incubation for 16 h and subjected to SDS-PAGE and western blotting. The RNA interference experiment was performed with CSN5 stealth siRNA (#HSS116986) and stealth negative control siRNA (#12935-400) (Invitrogen), which were transfected at 10 nM into HCT116 cells using […] (Qiagen) according to the manufacturer's protocols. Seventy-two hours after transfection, cells were harvested and subjected to SDS-PAGE and western blotting (see Supplementary Fig. 7 for all western blottings performed). A standardized CellTiter-Glo Assay (Promega #G7570) based on the quantification of ATP was applied according to the manufacturer's protocol to measure the amount of viable cells in culture. In brief, cells were seeded into 384-well plates at optimal density for each cell line. After 4 h, compounds were added at different concentrations in growth medium and incubated for another 72 h in a humidifying chamber at 37 °C and 5% CO2. Eventually, equal amounts of CellTiter-Glo reagent were added directly to the cells, incubated for 15 min and luminescence was recorded using PHERAstar plate reader (BMG LABTECH GmbH).

[3] = Blood concentrations of CSN5i-3 in xenograft study; type: in vivo, SCID-bg mice; conditions: 50 mg kg^−1 BID and 100 mg kg^−1 QD oral
Protocol: All animal experiments were approved by the Kantonales Veterinäramt Basel-Stadt and were conducted in accordance with the Eidgenössisches Tierschutzgesetz and the Eidgenössische Tierschutzverordnung. SU-DHL-1 cells (1 × 10^7; DSMZ) were implanted subcutaneously into SCID-bg female 7–9-week-old mice (Taconic) and developing tumours were propagated once before subcutaneous transplantation for efficacy studies. Treatment was initiated when tumours reached 150–200 mm^3 volume. […] Randomization was conducted by using an internal computer software (Indigo). CSN5i-3 was formulated in 100 mM citrate buffer pH 3, PEG300, Kolliphor HS15, 1 N HCl (56:30:10:4%w/w). Tumour response is reported as percentage change in tumour volume at the last day of treatment relative to start of treatment. […] At day 10 of treatment blood, samples were taken and concentrations of CSN5i-3 were determined at indicated time points post dose using ultra-high-pressure liquid chromatography/tandem MS. At the end of treatment, tumours were excised and snap frozen in liquid nitrogen. Frozen tumours were pulverized using CryoPrep (Covaris Inc.) and protein lysates were prepared from tumour powder for immunoblot analysis.

[4] = test system: THP-1 cells; assay: Cell viability assay (CellTiter-Glo), THP-1; type: cell-based, human; conditions: THP-1, 72 h; cytotoxic
Protocol: as §1

IC50 [1] [nM]	SMILES	AMAX [2]	dose dependence of exposure [3]	AMAX [4] [%]
2 ± 1	COCc1ccccc1NCc1ccc([C@H]2[C@@H](O)CCCc3cncn32)c(-c2ccccc2Cl)c1 [CSN5i-2, (5S,6S)-5-(2′-chloro-5-(((2-(methoxymethyl)phenyl)amino)methyl)-[1,1′-biphenyl]-2-yl)-6,7,8,9-tetrahydro-5H-imidazo[1,5-a]azepin-6-ol]	–	–	–
2100 ± 1800	COCc1ccccc1NCc1ccc([C@@H]2[C@H](O)CCCc3cncn32)c(-c2ccccc2Cl)c1 [CSN5i-2e, (5R,6R)-5-(2′-chloro-5-(((2-(methoxymethyl)phenyl)amino)methyl)-[1,1′-biphenyl]-2-yl)-6,7,8,9-tetrahydro-5H-imidazo[1,5-a]azepin-6-ol]	–	–	–
–	CC(C)n1nc(C(F)F)cc1C(=O)Nc1ccc([C@H]2[C@@H](O)CCCc3cncn32)c(-c2ccccc2)c1 [CSN5i-3, 3-(Difluoromethyl)-N-(6-((5S,6S)-6-hydroxy-6,7,8,9-tetrahydro-5H-imidazo[1,5-a]azepin-5-yl)-[1,1′-biphenyl]-3-yl)-1-isopropyl-1H-pyrazole-5-carboxamide]	about −50%	dose-linear exposure	≤ −95
